This assay deals with T1, GPR35 (Homo sapiens, UniProt Q9HC97).
T1 construct: expressed in transfected cells; host or cells: CHO-K1 cells co-expressing mitochondrial aequorin and Gα16
T1 sequence (Q9HC97 whole entry): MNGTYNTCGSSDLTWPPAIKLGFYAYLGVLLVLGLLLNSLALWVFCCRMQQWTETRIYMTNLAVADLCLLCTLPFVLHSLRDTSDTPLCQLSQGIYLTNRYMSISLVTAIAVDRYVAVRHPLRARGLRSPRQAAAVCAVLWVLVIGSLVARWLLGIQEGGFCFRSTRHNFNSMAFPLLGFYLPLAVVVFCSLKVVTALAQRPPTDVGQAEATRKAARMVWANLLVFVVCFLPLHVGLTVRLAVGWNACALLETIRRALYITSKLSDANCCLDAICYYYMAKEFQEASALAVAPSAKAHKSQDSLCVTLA
Description: cellular GPR35 phospho-ERK HTRF assay (inhibition of lodoxamide-induced phospho-ERK signal). The class given is cell-based. As to conditions: GPR35-CHO-K1-mt aequorin-Gα16 cell line; agonist lodoxamide at EC80; read-out: Activity Group (IC50, inhibition of GPR35 agonist-induced phospho-ERK signal). The source says: The functional GPR35 assay as described in the accompanying examples measures the ability of GPR35 modulators to inhibit a GPR35 agonist-induced phospho-ERK signal. This is expressed as the concentration of modulator required to reduce the phospho-ERK signal by 50 percent, i.e. the IC50; the signal window being defined as the difference between agonist plus modulator vehicle (no modulator) and agonist vehicle (no agonist) controls.
The functional assay described measures the ability of GPR35 modulators to inhibit a GPR35 agonist-induced phospho-ERK signal. This is expressed as the concentration of modulator required to reduce the phospho-ERK signal by 50 percent, i.e. the IC50; the signal window being defined as the difference between agonist plus modulator vehicle (no modulator) and agonist vehicle (no agonist) controls.
This assay is a cellular GPR35 phospho-ERK homogeneous time resolved fluorescence (HTRF) assay using the GPR35-CHO-K1-mt aequorin-Gα16 cell line. Upon activation of GPR35 with the agonist lodoxamide at EC80 concentration, ERK 1/2 is phosphorylated, and after lysis of the cell membrane, phospho-ERK1/2 (Thr202/Tyr204) is detected in a sandwich assay using two different specific antibodies, one labelled with Eu^3+-cryptate (donor) and the second with d2 (acceptor). When the dyes are in proximity, the excitation of the donor with a light source (laser or flash lamp) triggers a Fluorescence Resonance Energy Transfer (FRET) towards the acceptor, resulting in specific acceptor fluorescence (at 665 nm). The specific signal is directly proportional to the amount of phospho-ERK1/2 (Thr202/Tyr204) in the sample. Compounds that interfere with the levels of phospho-ERK1/2 (Thr202/Tyr204) will result in a low HTRF signal.
As to `O=C(Nc1ccc(OCCc2ccccc2)cc1)c1cccc(-c2cnc(NCCO)c(C(=O)O)c2)c1` [Example 36, 2-((2-Hydroxyethyl)amino)-5-(3-((4-phenethoxyphenyl)carbamoyl)phenyl)nicotinic acid], the IC50 is under 1 µM.
Under `COCCNc1ncc(-c2cccc(C(=O)Nc3ccc(OCCc4ccccc4)cc3)c2)cc1C(=O)O` [Example 37, 2-((2-Methoxyethyl)amino)-5-(3-((4-phenethoxyphenyl)carbamoyl)phenyl)nicotinic acid] stands under 1 µM.
On to `O=C(Nc1ccc(OCCc2ccccc2)cc1)c1cccc(-c2cnc(NC3CC3)c(C(=O)O)c2)c1` [Example 38, 2-(Cyclopropylamino)-5-(3-((4-phenethoxyphenyl)carbamoyl)phenyl)nicotinic acid], for which the concentration for half-maximal inhibition (IC50) was under 1 µM.
As for `Cc1ncc(-c2cccc(C(=O)Nc3ccc(COCc4ccccc4)cc3)c2)cc1C(=O)O` [Example 39, 5-(3-((4-((Benzyloxy)methyl)phenyl)carbamoyl)phenyl)-2-methylnicotinic acid], the half-inhibitory concentration (IC50) is under 1 µM.
For `Cc1ncc(-c2cccc(C(=O)Nc3cccc(COCc4ccccc4)c3)c2)cc1C(=O)O` [Example 40, 5-(3-((3-((Benzyloxy)methyl)phenyl)carbamoyl)phenyl)-2-methylnicotinic acid], the IC50 fell in the range of 1 to 10 µM.
For the compound `Cc1ncc(-c2cccc(C(=O)Nc3ccc(OCC4CC4)cc3)c2)cc1C(=O)O` [Example 41, 5-(3-((4-(Cyclopropylmethoxy)phenyl)carbamoyl)phenyl)-2-methylnicotinic acid], the IC50 lay within 1 to 10 µM.
In the case of `Cc1ncc(-c2cccc(C(=O)Nc3ccc(COC4CC4)cc3)c2)cc1C(=O)O` [Example 42, 5-(3-((4-(Cyclopropoxymethyl)phenyl)carbamoyl)phenyl)-2-methylnicotinic acid] it was 1 to 10 µM.
As for `Cc1ncc(-c2cccc(C(=O)Nc3ccc(CS(=O)(=O)Cc4ccccc4)cc3)c2)cc1C(=O)O` [Example 43, 5-(3-((4-((Benzylsulfonyl)methyl)phenyl)carbamoyl)phenyl)-2-methylnicotinic acid], the IC50 fell in the range of 1 to 10 µM.
In the case of `Cc1ncc(-c2cccc(C(=O)Nc3ccc(COCC4CC4)cc3)c2)cc1C(=O)O` [Example 44, 5-(3-((4-((Cyclopropylmethoxy)methyl)phenyl)carbamoyl)phenyl)-2-methylnicotinic acid], the IC50 is 1 to 10 µM.
For the compound `O=C(Nc1ccc(COCC2CC2)cc1)c1cccc(-c2cnc(Cl)c(C(=O)O)c2)c1` [Example 45, 2-Chloro-5-(3-((4-((cyclopropylmethoxy)methyl)phenyl)carbamoyl)phenyl)nicotinic acid], the IC50 is 1 to 10 µM.
With `O=C(Nc1ccc(OCCc2ccccc2)nc1)c1cccc(-c2cccc(C(=O)O)n2)c1` [Example 46, 6-(3-((6-Phenethoxypyridin-3-yl)carbamoyl)phenyl)picolinic acid], the IC50 was 1 to 10 µM.
`Cc1ncc(-c2cccc(C(=O)Nc3ccc(COCc4ccccc4)cc3F)c2)cc1C(=O)O` [Example 47, 5-(3-((4-((Benzyloxy)methyl)-2-fluorophenyl)carbamoyl)phenyl)-2-methylnicotinic acid]: the IC50 was 1 to 10 µM.
`O=C(Nc1cccc(-c2cccc(C(=O)O)n2)c1)c1ccc(OCCCCc2ccccc2)cc1` [Example 48, 6-(3-(4-(4-Phenylbutoxy)benzamido)phenyl)picolinic acid]: the IC50 is under 1 µM.
For the compound `Cc1ncc(-c2ncc(C(=O)Nc3ccc(COCc4ccccc4)cc3)s2)cc1C(=O)O` [Example 49, 5-(5-((4-((Benzyloxy)methyl)phenyl)carbamoyl)thiazol-2-yl)-2-methylnicotinic acid], the IC50 was 1 to 10 µM.
For `Cc1ncc(-c2nc(C(=O)Nc3ccc(COCc4ccccc4)cc3)cs2)cc1C(=O)O` [Example 50, 5-(4-((4-((Benzyloxy)methyl)phenyl)carbamoyl)thiazol-2-yl)-2-methylnicotinic acid], the 50% inhibitory concentration (IC50) was in the range of 1 to 10 µM.
Regarding `Cc1ncc(-c2cncc(C(=O)Nc3ccc(OCCc4ccccc4)cc3)c2)cc1C(=O)O` [Example 51, 6-Methyl-5′-((4-phenethoxyphenyl)carbamoyl)-[3,3′-bipyridine]-5-carboxylic acid], the concentration for half-maximal inhibition (IC50) lay within 1 to 10 µM.
Take `Cc1ncc(-c2ccc(F)c(C(=O)Nc3ccc(COCc4ccccc4)cc3)c2)cc1C(=O)O` [Example 52, 5-(3-((4-((Benzyloxy)methyl)phenyl)carbamoyl)-4-fluorophenyl)-2-methylnicotinic acid]: the IC50 is under 1 µM.
For the compound `Cc1ncc(-c2cc(C(=O)Nc3ccc(OCCc4ccccc4)cc3)ccn2)cc1C(=O)O` [Example 53, 6′-Methyl-4-((4-phenethoxyphenyl)carbamoyl)-[2,3′-bipyridine]-5′-carboxylic acid], the IC50 is under 1 µM.
For `Cc1ncc(-c2cncc(C(=O)Nc3ccc(OCCc4ccccc4)cc3)n2)cc1C(=O)O` [Example 54, 2-Methyl-5-(6-((4-phenethoxyphenyl)carbamoyl)pyrazin-2-yl)nicotinic acid], the IC50 fell in the range of 1 to 10 µM.
As for `Cc1ncc(-c2nccc(C(=O)Nc3ccc(OCCc4ccccc4)cc3)n2)cc1C(=O)O` [Example 55, 2-Methyl-5-(4-((4-phenethoxyphenyl)carbamoyl)pyrimidin-2-yl)nicotinic acid], the 50% inhibitory concentration (IC50) lay within 1 to 10 µM.
Turning to `Cc1ncc(-c2cccc(C(=O)Nc3ccc(COCc4ccccc4)c(F)c3)c2)cc1C(=O)O` [Example 56, 5-[3-[[4-(Benzyloxymethyl)-3-fluoro-phenyl]carbamoyl]phenyl]-2-methyl-pyridine-3-carboxylic acid], the IC50 was under 1 µM.
As for `Cc1ncc(-c2cccc(C(=O)Nc3cnn(CCc4ccccc4)c3)c2)cc1C(=O)O` [Example 57, 2-Methyl-5-[3-[[1-(2-phenylethyl)pyrazol-4-yl]carbamoyl]phenyl]pyridine-3-carboxylic acid], the IC50 is under 1 µM.
For the compound `Cc1ccc(S(=O)(=O)Cc2ccc(NC(=O)c3cccc(-c4cnc(C)c(C(=O)O)c4)c3)cc2)cc1` [Example 58, 2-Methyl-5-[3-[[4-(p-tolylsulfonylmethyl)phenyl]carbamoyl]phenyl]pyridine-3-carboxylic acid], the IC50 was under 1 µM.
As to `Cc1ncc(-c2cccc(C(=O)Nc3ccc(COC(C)c4ccccc4)cc3)c2)cc1C(=O)O` (stereo not drawn) [Example 59, 2-Methyl-5-[3-[[4-(1-phenylethoxymethyl)phenyl]carbamoyl]phenyl]pyridine-3-carboxylic acid], the 50% inhibitory concentration (IC50) was under 1 µM.
Under `Cc1ncc(-c2cccc(C(=O)Nc3ccc(OC(C)C4CC4)cc3)c2)cc1C(=O)O` (stereo not drawn) [Example 60, 5-[3-[[4-(1-Cyclopropylethoxy)phenyl]carbamoyl]phenyl]-2-methyl-pyridine-3-carboxylic acid] stands under 1 µM; under `COc1cc(COCc2ccccc2)ccc1NC(=O)c1cccc(-c2cnc(C)c(C(=O)O)c2)c1` [Example 61, 5-[3-[[4-(Benzyloxymethyl)-2-methoxy-phenyl]carbamoyl]phenyl]-2-methyl-pyridine-3-carboxylic acid], 1 to 10 µM.
Under `Cc1ncc(-c2cccc(C(=O)Nc3ccc(COCc4ccccn4)c(F)c3)c2)cc1C(=O)O` [Example 62, 5-[3-[[3-Fluoro-4-(2-pyridylmethoxymethyl)phenyl]carbamoyl]phenyl]-2-methyl-pyridine-3-carboxylic acid] stands 1 to 10 µM; under `COc1ccc(COCc2ccc(NC(=O)c3cccc(-c4cnc(C)c(C(=O)O)c4)c3)cc2F)cc1` [Example 63, 5-[3-[[3-Fluoro-4-[(4-methoxyphenyl)methoxymethyl]phenyl]carbamoyl]phenyl]-2-methyl-pyridine-3-carboxylic acid], under 1 µM.
Turning to `COc1cccc(COCc2ccc(NC(=O)c3cccc(-c4cnc(C)c(C(=O)O)c4)c3)cc2F)c1` [Example 64, 5-[3-[[3-Fluoro-4-[(3-methoxyphenyl)methoxymethyl]phenyl]carbamoyl]phenyl]-2-methyl-pyridine-3-carboxylic acid], the IC50 is under 1 µM.
As to `O=C(O)c1cnc(F)c(-c2cccc(C(=O)Nc3ccc(OCCc4ccccc4)cc3)c2)c1` [Example 65, 6-Fluoro-5-[3-[[4-(2-phenylethoxy)phenyl]carbamoyl]phenyl]pyridine-3-carboxylic acid], the IC50 is under 1 µM.
In the case of `O=C(O)c1cnc(O)c(-c2cccc(C(=O)Nc3ccc(OCCc4ccccc4)cc3)c2)c1` [Example 66, 6-Hydroxy-5-[3-[[4-(2-phenylethoxy)phenyl]carbamoyl]phenyl]pyridine-3-carboxylic acid], the IC50 was 1 to 10 µM.
Under `O=C(O)c1cnnc(-c2cccc(C(=O)Nc3ccc(COCc4ccccc4)cc3)c2)c1` [Example 67, 6-[3-[[4-(Benzyloxymethyl)phenyl]carbamoyl]phenyl]pyridazine-4-carboxylic acid] stands under 1 µM; under `Cc1ncc(-c2cccc(C(=O)Nc3ccc(COCc4ccccc4)cc3)c2)nc1C(=O)O` [Example 68, 6-[3-[[4-(Benzyloxymethyl)phenyl]carbamoyl]phenyl]-3-methyl-pyrazine-2-carboxylic acid], under 1 µM.

As usually defined, the IC50 is the midpoint of a concentration-inhibition curve.
